Laboratory results published in patent publication US9789100B2, “Compounds as rearranged during transfection (RET) inhibitors” (GlaxoSmithKline Intellectual Property Development Limited, priority 2013, dated 2017).
Where a name gives a salt, the structure may show the parent alone. Read-outs that look alike come from different tables or passages of the source.

Assays:
[1] = target: Human RET kinase cytoplasmic domain (Homo sapiens (Human), UniProt P07949); assay: RET kinase enzymatic assay; format: biochemical; conditions: human RET kinase enzymatic assay (Table 2)
Sequence of Human RET kinase cytoplasmic domain (P07949 658-1114): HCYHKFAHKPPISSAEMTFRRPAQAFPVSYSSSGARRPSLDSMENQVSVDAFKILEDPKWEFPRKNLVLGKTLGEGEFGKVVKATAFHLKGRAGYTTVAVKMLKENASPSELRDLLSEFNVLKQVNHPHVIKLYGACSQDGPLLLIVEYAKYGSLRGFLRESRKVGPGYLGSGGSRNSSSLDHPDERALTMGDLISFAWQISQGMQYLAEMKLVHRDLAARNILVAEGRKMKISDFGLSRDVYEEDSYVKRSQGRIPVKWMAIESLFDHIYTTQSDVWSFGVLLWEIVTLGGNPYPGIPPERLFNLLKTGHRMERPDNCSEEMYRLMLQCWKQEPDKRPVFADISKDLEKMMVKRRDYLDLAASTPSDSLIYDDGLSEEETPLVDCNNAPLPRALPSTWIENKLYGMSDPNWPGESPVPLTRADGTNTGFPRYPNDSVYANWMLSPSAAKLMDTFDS
Procedure: RET Kinase Enzymatic Assay
GST-RET was purified using glutathione sepharose chromatography. The RET kinase enzymatic assay was performed in a total volume of 10 uL with increasing concentrations of RET kinase inhibitor as a singlet in a 384 well format as follows: RET inhibitor compound plates are prepared by adding 100 nL of RET inhibitor at different concentrations to a 384-well plate. 5 μL/well of a 2× enzyme mix (50 mM HEPES (4-(2-hydroxyethyl)-1-piperazineethanesulfonic acid); 1 mM CHAPS (3[(3-cholamidopropyl)dimethylammonio]-1-propanesulfonate); 0.1 mg/mL BSA (bovine serum albumin); 1 mM DTT (dithiothreitol); 0.2 nM RET kinase) was added to the 384-well plate and incubated for 30 minutes at 23° C.

[2] = test system: TT cells; assay: RET kinase cell-based proliferation assay; set-up: species or system human; conditions: 192 h, read-out: RET IC50
Description: RET Kinase Cell-Based Proliferation Assay

[3] = target: constitutive RET kinase phosphorylation in TT cells (Homo sapiens (Human), UniProt P07949, C634W); assay: RET kinase cell-based mechanistic assay
Sequence of constitutive RET kinase phosphorylation in TT cells (P07949 29-1114 C634W): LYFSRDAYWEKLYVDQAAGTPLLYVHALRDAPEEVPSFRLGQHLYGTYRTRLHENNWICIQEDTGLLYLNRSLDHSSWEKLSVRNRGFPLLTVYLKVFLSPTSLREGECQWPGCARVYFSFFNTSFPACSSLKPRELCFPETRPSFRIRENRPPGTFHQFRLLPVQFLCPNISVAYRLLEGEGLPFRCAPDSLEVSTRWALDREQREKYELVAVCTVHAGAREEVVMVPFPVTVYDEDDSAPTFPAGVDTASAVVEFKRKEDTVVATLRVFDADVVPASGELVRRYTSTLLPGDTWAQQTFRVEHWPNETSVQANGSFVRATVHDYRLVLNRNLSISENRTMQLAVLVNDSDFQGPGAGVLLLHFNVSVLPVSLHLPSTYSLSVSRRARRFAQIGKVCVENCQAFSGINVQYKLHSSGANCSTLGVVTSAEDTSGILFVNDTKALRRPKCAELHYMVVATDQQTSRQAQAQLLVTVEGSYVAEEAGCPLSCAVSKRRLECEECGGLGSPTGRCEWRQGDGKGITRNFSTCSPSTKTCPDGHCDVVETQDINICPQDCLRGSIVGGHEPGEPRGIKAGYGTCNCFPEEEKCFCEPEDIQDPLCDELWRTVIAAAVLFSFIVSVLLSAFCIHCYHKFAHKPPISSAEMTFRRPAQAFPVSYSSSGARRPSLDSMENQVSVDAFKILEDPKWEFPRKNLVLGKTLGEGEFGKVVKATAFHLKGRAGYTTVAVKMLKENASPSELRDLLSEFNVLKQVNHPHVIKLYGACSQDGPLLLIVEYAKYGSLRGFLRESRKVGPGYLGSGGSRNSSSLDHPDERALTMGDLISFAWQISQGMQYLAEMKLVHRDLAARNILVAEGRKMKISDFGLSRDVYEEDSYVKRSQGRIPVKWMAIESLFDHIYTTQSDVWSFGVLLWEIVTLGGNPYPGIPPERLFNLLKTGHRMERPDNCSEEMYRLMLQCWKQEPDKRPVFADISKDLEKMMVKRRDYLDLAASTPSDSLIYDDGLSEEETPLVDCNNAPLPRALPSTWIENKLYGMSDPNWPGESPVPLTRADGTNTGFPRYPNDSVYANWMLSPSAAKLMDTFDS
Procedure: RET Kinase Cell-Based Mechanistic Assay
The potency of the compound of the invention was tested for its ability to inhibit constitutive RET kinase phosphorylation in cell-based assay. […] 1.0E5 TT cells/well were plated in a 96-well cell culture plate and allowed to adhere overnight. […] IC50s were fitted using GraphPad Prism to a sigmoidal dose response.

[4] = human RET kinase cell-based proliferation assay, TT cells, eight days (Table 4)

Compound | IC50 [1] | IC50 ([2]; Homo sapiens, TT) | IC50 [3] | IC50 [2, 4]
CCOc1cc(-c2ccc(CC(=O)Nc3cc(-n4ccc(C)n4)cc(C(F)(F)F)c3)c(F)c2)c[nH]c1=O [Example 35, 2-(4-(5-ethoxy-6-oxo-1,6-dihydropyridin-3-yl)-2-fluorophenyl)-N-(3-(3-methyl-1H-pyrazol-1-yl)-5-(trifluoromethyl)phenyl)acetamide hydrochloride] | < 100 nM | 100 to 500 nM | < 100 nM | –
CCOc1cc(-c2ccc(CC(=O)Nc3cc(C(C)(C)C(F)(F)F)n[nH]3)c(F)c2)c[nH]c1=O [Example 42, 2-(4-(5-ethoxy-6-oxo-1,6-dihydropyridin-3-yl)-2-fluorophenyl)-N-(3-(1,1,1-trifluoro-2-methylpropan-2-yl)-1H-pyrazol-5-yl)acetamide hydrochloride] | < 100 nM | < 100 nM | < 100 nM | –
CCOc1cc(=O)[nH]cc1-c1ccc(CC(=O)Nc2ccc(CC(C)(C)CO)c(C(F)(F)F)c2)cc1F [Example 32, 2-(4-(4-Ethoxy-6-oxo-1,6-dihydropyridin-3-yl)-3-fluorophenyl)-N-(4-(3-hydroxy-2,2-dimethylpropyl)-3-(trifluoromethyl)phenyl)acetamide] | < 100 nM | – | < 100 nM | < 100 nM
CCOc1cc(=O)[nH]cc1-c1ccc(CC(=O)Nc2cnc(OCCN(C)C)c(C(F)(F)F)c2)c(F)c1 [Example 10, N-(6-(2-(Dimethylamino)ethoxy)-5-(trifluoromethyl)pyridin-3-yl)-2-(4-(4-ethoxy-6-oxo-1,6-dihydropyridin-3-yl)-2-fluorophenyl)acetamide dihydrochloride] | 100 to 500 nM | 500 to 10000 nM | 500 to 10000 nM | –
CCOc1cc(-c2ccc(CC(=O)Nc3cc(OCCN(C)C)cc(C(F)(F)F)c3)c(F)c2)c[nH]c1=O [Example 46, N-(3-(2-(dimethylamino)ethoxy)-5-(trifluoromethyl)phenyl)-2-(4-(5-ethoxy-6-oxo-1,6-dihydropyridin-3-yl)-2-fluorophenyl)acetamide] | < 100 nM | – | < 100 nM | < 100 nM
CCOc1cc(-c2ccc(CC(=O)Nc3cc(C(C)(C)C(F)(F)F)nn3C)c(F)c2)c[nH]c1=O [Example 41, 2-(4-(5-ethoxy-6-oxo-1,6-dihydropyridin-3-yl)-2-fluorophenyl)-N-(1-methyl-3-(1,1,1-trifluoro-2-methylpropan-2-yl)-1H-pyrazol-5-yl)acetamide hydrochloride] | < 100 nM | 100 to 500 nM | < 100 nM | –
CCOc1cc(-c2ccc(CC(=O)Nc3cc(-c4cnn(C)c4)cc(C(F)(F)F)c3)c(F)c2)c[nH]c1=O [Example 45, 2-(4-(5-ethoxy-6-oxo-1,6-dihydropyridin-3-yl)-2-fluorophenyl)-N-(3-(1-methyl-1H-pyrazol-4-yl)-5-(trifluoromethyl)phenyl)acetamide hydrochloride] | < 100 nM | 100 to 500 nM | < 100 nM | –
CCOc1cc(-c2ccc(CC(=O)Nc3ccc(CN4CCN(CC)CC4)c(C(F)(F)F)c3)c(F)c2)c[nH]c1=O [Example 21, 2-(4-(5-Ethoxy-6-oxo-1,6-dihydropyridin-3-yl)-2-fluorophenyl)-N-(4-((4-ethylpiperazin-1-yl)methyl)-3-(trifluoromethyl)phenyl)acetamide, dihydrochloride] | < 100 nM | – | < 100 nM | –
CCOc1cc(=O)[nH]cc1-c1ccc(CC(=O)Nc2ccc(C(C)(C)C(F)(F)F)nc2)c(F)c1 [Example 37, 2-(4-(4-ethoxy-6-oxo-1,6-dihydropyridin-3-yl)-2-fluorophenyl)-N-(6-(1,1,1-trifluoro-2-methylpropan-2-yl)pyridin-3-yl)acetamide hydrochloride] | < 100 nM | 500 to 10000 nM | 100 to 500 nM | –
CCOc1cc(-c2ccc(CC(=O)Nc3cc(-n4cc(C)cn4)cc(C(F)(F)F)c3)c(F)c2)c[nH]c1=O [Example 34, 2-(4-(5-ethoxy-6-oxo-1,6-dihydropyridin-3-yl)-2-fluorophenyl)-N-(3-(4-methyl-1H-pyrazol-1-yl)-5-(trifluoromethyl)phenyl)acetamide hydrochloride] | < 100 nM | 100 to 500 nM | 100 to 500 nM | –
CCOc1cc(-c2ccc(CC(=O)Nc3cc(C(C)(C)C(F)(F)F)on3)c(F)c2)c[nH]c1=O [Example 19, 2-(4-(5-Ethoxy-6-oxo-1,6-dihydropyridin-3-yl)-2-fluorophenyl)-N-(5-(1,1,1-trifluoro-2-methylpropan-2-yl)isoxazol-3-yl)acetamide] | < 100 nM | – | – | –
CCOc1cc(-c2ccc(CC(=O)Nc3cc(-c4cn[nH]c4)cc(C(F)(F)F)c3)c(F)c2)c[nH]c1=O [Example 36, N-(3-(1H-pyrazol-4-yl)-5-(trifluoromethyl)phenyl)-2-(4-(5-ethoxy-6-oxo-1,6-dihydropyridin-3-yl)-2-fluorophenyl)acetamide hydrochloride] | < 100 nM | 100 to 500 nM | < 100 nM | –
CCOc1cc(-c2ccc(CC(=O)Nc3cc(C(C)(C)C(F)(F)F)no3)c(F)c2)c[nH]c1=O [Example 28, 2-(4-(5-Ethoxy-6-oxo-1,6-dihydropyridin-3-yl)-2-fluorophenyl)-N-(3-(1,1,1-trifluoro-2-methylpropan-2-yl)isoxazol-5-yl)acetamide] | < 100 nM | – | < 100 nM | < 100 nM
CCOc1cc(-c2ccc(CC(=O)Nc3cc(-n4cnc(C)c4)cc(C(F)(F)F)c3)c(F)c2)c[nH]c1=O [Example 11, 2-(4-(5-Ethoxy-6-oxo-1,6-dihydropyridin-3-yl)-2-fluorophenyl)-N-(3-(4-methyl-1H-imidazol-1-yl)-5-(trifluoromethyl)phenyl)acetamide hydrochloride] | < 100 nM | – | – | –
CCOc1cc(-c2ccc(CC(=O)Nc3cc(C(F)(F)F)c(F)cc3F)c(F)c2)c[nH]c1=O [Example 24] | < 100 nM | – | – | –
CCOc1cc(-c2ccc(CC(=O)Nc3ccc(CC(F)(F)CO)c(C(F)(F)F)c3)c(F)c2)c[nH]c1=O [Example 43, N-(4-(2,2-difluoro-3-hydroxypropyl)-3-(trifluoromethyl)phenyl)-2-(4-(5-ethoxy-6-oxo-1,6-dihydropyridin-3-yl)-2-fluorophenyl)acetamide] | < 100 nM | – | < 100 nM | < 100 nM
CCOc1cc(-c2ccc(CC(=O)Nc3ccc(CN(C)C)c(C(F)(F)F)c3)c(F)c2)c[nH]c1=O [Example 17, N-(4-((Dimethylamino)methyl)-3-(trifluoromethyl)phenyl)-2-(4-(5-ethoxy-6-oxo-1,6-dihydropyridin-3-yl)-2-fluorophenyl)acetamide hydrochloride] | < 100 nM | – | – | –
CCOc1cc(-c2ccc(CC(=O)Nc3ccc(Cl)c(Cl)c3)c(F)c2)c[nH]c1=O [Example 18, N-(3,4-Dichlorophenyl)-2-(4-(5-ethoxy-6-oxo-1,6-dihydropyridin-3-yl)-2-fluorophenyl)acetamide] | 100 to 500 nM | – | – | –
CCOc1cc(=O)[nH]cc1-c1ccc(CC(=O)Nc2cnc(C(C)(C)CO)c(C(F)(F)F)c2)c(F)c1 [Example 31, 2-(4-(4-Ethoxy-6-oxo-1,6-dihydropyridin-3-yl)-2-fluorophenyl)-N-(6-(1-hydroxy-2-methylpropan-2-yl)-5-(trifluoromethyl)pyridin-3-yl)acetamide] | < 100 nM | – | < 100 nM | < 100 nM
CCOc1cc(-c2ccc(CC(=O)Nc3cc(OCCN4CCOCC4)cc(C(F)(F)F)c3)c(F)c2)c[nH]c1=O [Example 39, 2-(4-(5-ethoxy-6-oxo-1,6-dihydropyridin-3-yl)-2-fluorophenyl)-N-(3-(2-morpholinoethoxy)-5-(trifluoromethyl)phenyl)acetamide] | < 100 nM | – | < 100 nM | 100 to 500 nM
